5 compounds from patent US5994349A, “3-carboalkoxy-2, 3-dihydro-1H-phenothiazin-4[10H]-one derivatives” (priority 1997, dated 1999) can be followed below.

Where two headings read alike, the source gives them in different places.

Data set [1] has as its system pentylenetetrazol seizures. Description: subcutaneous pentylenetetrazol (scMet) test, Phase I, mice ip. The format is in vivo, male Carworth Farms No. 1 (CF1) mice. The conditions noted are these: for responders at 10 mg/kg / responders at 30 mg/kg / responders at 100 mg/kg / responders at 300 mg/kg: Mus musculus. As to the method: (§1) Initial evaluations for anticonvulsant activity include phases I, VIA and VIB test procedures. These tests are performed intraperitoneally in male Carworth Farms No. 1 (CF1) mice, weighing 18-25 g (Phase I) or orally in male Sprague-Dawley rats, weighing 100-150 g (Phases VIA and VIB). The evaluation is based on three tests: maximal electroshock (MES), subcutaneous (scMet), and the rotorod test for neurological toxicity (Tox). (a) Anticonvulsant Screening Project, Antiepileptic Drug Development Program, National Institutes of Health, DHEW Publ (NIH)(U.S.) 1978, NIH 78-1093. (b) Porter, R. J.; Cereghino, J. J.; Gladding, G. D.; Hessie, B. J.; Kupferberg, H. J.; Scoville, B.; White, B. G. Antiepileptic drug development program. Cleveland Clin. Q. 1984, 51, 293-305. (c) Krall, R. L.; Penry, J. K.; White, B. G.; Kupferberg, H. J.; Swinyard, E. A. Antiepileptic drug development: II. Anticonvulsant drug screening. Epilepsia 1978, 19, 400-428. In the MES test, maximal electroshock seizures are elicited with a 60- cycle alternating current of 50 mA intensity (5-7 times that necessary to elicit minimal electroshock seizures) delivered via corneal electrodes for 0.2 seconds. A drop of 0.9% saline is placed on the eye prior to application of the electrodes in order to […]. Abolition of the hind limb tonic extension component of the seizure is defined as protection and results are expressed as the number of animals protected/the number of animals tested.
In the sc MET test, eighty-five mg/kg of pentylenetetrazol, which induces seizures in more than 95% of mice, is administered as a 0.5% solution subcutaneously in the posterior midline. The animal is observed for 30 minutes. Failure to observe even a threshold seizure (a single episode of clonic spasms of at least 5 seconds duration) is defined as protection and the results are expressed as the number of animals protected/ the number of animals tested. […]

Data set [2] relates to maximal electroshock seizures. As to the kind of experiment: maximal electroshock (MES) test, Phase I, mice ip. The format is in vivo, male Carworth Farms No. 1 (CF1) mice. The conditions noted are these: for responders at 10 mg/kg / responders at 30 mg/kg / responders at 100 mg/kg / responders at 300 mg/kg: Mus musculus. As to the method: as §1
In phase I, compounds are suspended in 0.5% aqueous methylcellulose and are administered intraperitoneally at three dosage levels (30, 100, and 300 mg/kg) with anticonvulsant activity and motor impairment noted 30 min and 4 h (and in some cases 2 h and 6 h) after administration.

Data set [3] concerns neurotoxicity (rotorod). Description: rotorod test for neurological toxicity (Tox), Phase I, mice ip. The format is in vivo, male Carworth Farms No. 1 (CF1) mice. The procedure: as §1
The rotorod test is used to evaluate neurotoxicity. The animal is placed on a 1 inch diameter knurled plastic rod rotating at 6 rpm. Normal mice can remain on a rod rotating at this speed indefinitely. […]

For data set [4], the system named is maximal electroshock seizures. As to the kind of experiment: maximal electroshock (MES) test, oral rat (Phase VIA/VIB). The format is in vivo, male Sprague-Dawley rats. The conditions noted are these: 30 mg/kg. As to the method: as §1
(§2) To differentiate the results between different rodent species, 4b (X=H), as well as 4a (R=H), 4e (R=Cl), 4f (R=Cl) and 4i (R=CH3) are subsequently evaluated for oral (po) activity in the rat (Phase VIA or VIB).

Data set [5] has as its system neurotoxicity (rotorod). As to the kind of experiment: rotorod toxicity, oral rat (Phase VIA/VIB). The format is in vivo, male Sprague-Dawley rats. Particulars: rat oral, 30 mg/kg. As to the method: as §1
The rotorod test is used to evaluate neurotoxicity. The animal is placed on a 1 inch diameter knurled plastic rod rotating at 6 rpm. Normal mice can remain on a rod rotating at this speed indefinitely.
as §2
A general note: Falling from the rotarod earlier than controls is read as motor impairment.

The mark [6] stands for this setting: 0.5 h, mice ip, 10 mg/kg, 30 min, read-out: scMet 30 min.
[7] abbreviates: 0.5 h, mice ip, 30 min, read-out: scMet 30 min.
The mark [8] stands for this setting: mice ip, 10 mg/kg, 4 h, read-out: scMet 4 h.
Setting [9] is: mice ip, 4 h, read-out: scMet 4 h.
Where [10] appears, read: 100 mg/kg, 4 h, read-out: MES 4 h (converted).
[11] abbreviates: 0.5 h, 30 min, read-out: MES 30 min.
The mark [12] stands for this setting: 0.5 h, 30 min, read-out: MES 30 min (converted).
Setting [13] is: 0.5 h, 100 mg/kg, 30 min, read-out: MES 30 min (converted).
The mark [14] stands for this setting: 0.5 h, mice ip, 30 min, read-out: scMet 30 min (converted).
[15] abbreviates: mice ip, 4 h, read-out: scMet 4 h (converted).
Where [16] appears, read: 4 h, read-out: MES 4 h (converted).

As for `COC(=O)[C@@H]1C(=O)C2=C(C[C@H]1C)Nc1ccc(Br)cc1S2` (relative stereo) [Compound 4j, 7-Bromo-3-carbomethoxy-2-methyl-2,3-dihydro-1H-phenothiazin-4[10H]-one], the responders at 10 mg/kg in data set [1] (setting [6]) came to 0%; in data set [1] (setting [8]), 0%; in data set [2] (4 h, read-out: MES 4 h) it was 0%; in data set [2] (setting [11]), 0%. Moreover, the responders at 30 mg/kg in data set [1] (setting [7]) was 0%; in data set [1] (setting [9]) it was 0%; in data set [2] (4 h, read-out: MES 4 h), 0%; in data set [2] (setting [12]), 33.3%; in data set [4] (0.25 h), 50%; in data set [4] (1.00 h), 50%. In data set [4] (0.5 h, 0.50 h), the responders at 30 mg/kg was 75%. The responders at 100 mg/kg in data set [1] (setting [7]) was 0%; in data set [1] (setting [9]), 0%; in data set [2] (setting [10]), 0%; in data set [2] (setting [13]), 100%. In addition, in data set [1] (mice ip, 10 and 30 mg/kg, 30 min), the “observation in scMet test (footnote g)” value was “Continuous seizure activity”. The “observation in scMet test (footnote h)” value in data set [1] (mouse, in vivo, ip, 10 mg/kg) is “Death following continuous seizure”. Besides, the “Tox 30 min” value is 0/4 in the data set with neurotoxicity (rotorod) [3] (10 mg/kg), 0/8 in the data set with neurotoxicity (rotorod) [3] (30 mg/kg) and 0/4 in the data set with neurotoxicity (rotorod) [3] (100 mg/kg). The “Tox 4 h” value with neurotoxicity (rotorod) [3] (10 mg/kg) is recorded as 0/2; with neurotoxicity (rotorod) [3] (30 mg/kg) it was 0/4; in the data set with neurotoxicity (rotorod) [3] (100 mg/kg) it was 0/2. Moreover, the Tox is on record as 0/4 in the data set with neurotoxicity (rotorod) [5] (0.25 h), 0/4 in the data set on neurotoxicity (rotorod) [5] (0.50 h) and 0/2 with neurotoxicity (rotorod) [5] (1.00 h).

Regarding `C[C@@H]1CC2=C(Sc3ccccc3N2)C(=O)[C@H]1C(=O)OC(C)(C)C` (relative stereo) [Compound 4c, 3-Carbo-ter-butoxy-2-methyl-2,3-dihydro-1H-phenothiazin-4[10H]-one], the responders at 30 mg/kg in data set [1] (setting [7]) was 0%; in data set [1] (setting [9]) it was 0%; in data set [2] (4 h, read-out: MES 4 h), 0%; in data set [2] (setting [12]), 0%. Moreover, the responders at 100 mg/kg in data set [1] (setting [7]) was 0%; in data set [1] (setting [9]), 0%; in data set [2] (setting [10]), 33.3%; in data set [2] (setting [13]) it was 0%. The responders at 300 mg/kg in data set [1] (setting [14]) is 0%; in data set [1] (setting [15]) it was 0%; in data set [2] (setting [16]) it was 100%; in data set [2] (setting [12]), 0%. The “MES animals protected at 2 h” value in data set [2] (100 mg/kg, 2 h) is 1/3. For the same compound, the “MES animals protected at 6 h” value in data set [2] (100 mg/kg, 6 h) is 0/3. Moreover, the “Tox 30 min” value in the data set on neurotoxicity (rotorod) [3] (30 mg/kg) was 0/4; with neurotoxicity (rotorod) [3] (100 mg/kg) it was 0/8; in the data set on neurotoxicity (rotorod) [3] (300 mg/kg), 0/4. The figures for the “Tox 4 h” value in the data set on neurotoxicity (rotorod) [3] (30 mg/kg), with neurotoxicity (rotorod) [3] (100 mg/kg) and in the data set with neurotoxicity (rotorod) [3] (300 mg/kg) were 0/2, 0/4 and 0/2, respectively. The “toxic at 2 h” value with neurotoxicity (rotorod) [3] (100 mg/kg, 2 h) was 1/3. Besides, the “toxic at 6 h” value in the data set on neurotoxicity (rotorod) [3] (100 mg/kg, 6 h) is on record as 0/3.

Take `COC(=O)[C@@H]1C(=O)C2=C(C[C@H]1C)Nc1ccc(C)cc1S2` (relative stereo) [Compound 4h]: the responders at 30 mg/kg in data set [1] (setting [7]) is 0%; in data set [1] (setting [9]), 0%; in data set [2] (4 h, read-out: MES 4 h) it was 0%; in data set [2] (setting [12]), 0%. The responders at 100 mg/kg in data set [1] (setting [7]) was 0%; in data set [1] (setting [9]), 0%; in data set [2] (setting [10]), 33.3%; in data set [2] (setting [13]), 0%. Moreover, the responders at 300 mg/kg in data set [1] (setting [14]) is 0%; in data set [2] (setting [16]), 100%; in data set [2] (setting [12]), 100%. For the same compound, the “MES animals protected at 0.25 h” value in data set [2] (100 mg/kg, 0.25 h) is listed as 2/3. In addition, the “Tox 30 min” value was 0/4 in the data set with neurotoxicity (rotorod) [3] (30 mg/kg), 0/8 in the data set on neurotoxicity (rotorod) [3] (100 mg/kg) and 0/3 with neurotoxicity (rotorod) [3] (300 mg/kg). The “Tox 4 h” value is 0/2 with neurotoxicity (rotorod) [3] (30 mg/kg), 0/4 with neurotoxicity (rotorod) [3] (100 mg/kg) and 0/1 in the data set on neurotoxicity (rotorod) [3] (300 mg/kg).

For `CCOC(=O)[C@@H]1C(=O)C2=C(C[C@H]1C)Nc1ccc(Br)cc1S2` (relative stereo) [Compound 4k, 7-Bromo-3-carbethoxy-2-methyl-2,3-dihydro-1H-phenothiazin-4[10H]-one], the responders at 10 mg/kg in data set [1] (setting [6]) was 0%; in data set [1] (setting [8]) it was 0%; in data set [2] (4 h, read-out: MES 4 h), 0%; in data set [2] (setting [11]) it was 0%. For the same compound, the responders at 30 mg/kg in data set [1] (setting [7]) was 0%; in data set [1] (setting [9]), 0%; in data set [2] (4 h, read-out: MES 4 h) it was 0%; in data set [2] (setting [12]) it was 0%. Moreover, the responders at 100 mg/kg in data set [1] (setting [7]), in data set [1] (setting [9]), in data set [2] (setting [10]) and in data set [2] (setting [13]) was 0% in each case. Besides, the responders at 300 mg/kg is 0% in data set [1] (setting [14]), 0% in data set [1] (setting [15]), 100% in data set [2] (setting [16]) and 100% in data set [2] (setting [12]). Besides, the “Tox 30 min” value is 0/4 in the data set with neurotoxicity (rotorod) [3] (10 mg/kg), 0/8 with neurotoxicity (rotorod) [3] (30 mg/kg), 0/4 in the data set on neurotoxicity (rotorod) [3] (100 mg/kg) and 0/8 with neurotoxicity (rotorod) [3] (300 mg/kg). In addition, the “Tox 4 h” value in the data set with neurotoxicity (rotorod) [3] (10 mg/kg) is on record as 0/2; in the data set with neurotoxicity (rotorod) [3] (30 mg/kg), 0/4; in the data set with neurotoxicity (rotorod) [3] (100 mg/kg), 0/2; in the data set on neurotoxicity (rotorod) [3] (300 mg/kg), 0/4.

As to `C[C@@H]1CC2=C(Sc3cc(Cl)ccc3N2)C(=O)[C@H]1C(=O)OC(C)(C)C` (relative stereo) [Compound 4g, 7-Chloro-3-carbo-ter-butoxy-2-methyl-2,3-dihydro-1H-phenothiazin-4[10H]-one], the responders at 30 mg/kg in data set [1] (setting [7]) was 0%; in data set [1] (setting [9]), 0%; in data set [2] (4 h, read-out: MES 4 h), 0%; in data set [2] (setting [12]), 0%. Further, the responders at 100 mg/kg is 0% in data set [1] (setting [7]), 0% in data set [1] (setting [9]), 33.3% in data set [2] (setting [10]) and 0% in data set [2] (setting [13]). The responders at 300 mg/kg is 0% in data set [1] (setting [14]), 0% in data set [1] (setting [15]), 100% in data set [2] (setting [16]) and 0% in data set [2] (setting [12]). The “Tox 30 min” value is recorded as 0/4 with neurotoxicity (rotorod) [3] (30 mg/kg), 0/8 in the data set with neurotoxicity (rotorod) [3] (100 mg/kg) and 0/4 with neurotoxicity (rotorod) [3] (300 mg/kg). Further, the “Tox 4 h” value with neurotoxicity (rotorod) [3] (30 mg/kg) is given as 0/2; in the data set with neurotoxicity (rotorod) [3] (100 mg/kg), 0/4; with neurotoxicity (rotorod) [3] (300 mg/kg) it was 0/2.
